# Experimental data published in patent US20240301409A1, “Chemically Modified Small Activating RNA” (RACTIGEN THERAPEUTICS, priority 2021, published 2024).
# Tested on: J82 cells
# Assay: Cellular proliferation assay (CCK8) in J82 cells, combined with Mitomycin C or valrubicin
# Assay type: cell-based, human
# Method: J82 cells were transfected with RAG1-40-31 at concentrations of 0.1, 0.5, 1, 5, 10, 25 and 50 nM for 24 hours, and then Mitomycin C at concentrations of 1, 10, 100, 1000 and 10000 nM was added. The combined treatment was carried out with concentrations in pairs. After treatment, the proliferation of cells was detected using CCK8 kit. FIGS. 14A-14B show the relative proliferation proportion of J82 cells after the combined treatment with chemically modified saRNA RAG1-40-31 and valrubicin. […] Control and DMSO are the blank transfection control and the solvent for dilution control, respectively.
# J82 cells were transfected with RAG1-40-31 at concentrations of 0.1, 0.5, 1, 5, 10, 25 and 50 nM for 24 hours, and then valrubicin at concentrations of 1, 10, 100, 1000 and 10000 nM was added. The combined treatment was carried out with concentrations in pairs. After treatment, the cellular proliferation was detected by CCK8 kit. FIGS. 15A-15B show the relative proliferation proportion of T24 cells after the combined treatment with chemically modified saRNA RAG1-40-31 and Mitomycin C. […] Control and DMSO are the blank transfection control and the solvent for dilution control, respectively.
# Human bladder cancer cells Ku-7-LG (ATCC), J82 (ATCC) and T24 (ATCC) were cultured in McCoy medium (Gibco) comprising 10% calf serum (Sigma-Aldrich) and 1% penicillin/Streptomycin (Gibco). Cells were cultured at 37° C. under 5% CO2. Ku-7-LG, J82 and T24 cells were plated into 12-well plates at 10×10^4 cells per well, transfected with the small RNA at a concentration of 10 nM (unless otherwise specified) for three days, using RNAiMax (Invitrogen, Carlsbad, CA) according to the manufacturer's instructions. Two replicate wells were set for each treatment.
# Cells were plated in a 96-well plate at 2˜4×10^3 cells/well, cultured overnight, and transfected with the oligonucleotide duplexes. Three days after transfection, CCK8 (Dojindo) was used to detect cellular proliferation following manufacturer's instructions. The experimental steps are briefly described as follows: 10 μL of CCK8 solution was added to each well, incubated at 37° C. for 1 hour, and then the absorbance at 450 nm was measured using a microplate reader.
# In this example, chemically modified saRNA RAG1-40-31 was used in combination with clinical chemical agents to evaluate the suppressing effect of the combined agents on cancer cells.
substance,measurement,setting,value
"RAG1-40-31: saRNA duplex: sense fCfCAACUCAUUCUCCAAG*U*C (SEQ ID NO 16); antisense U*A*fCfUfUGGAGAAfUGAGfUfUGG*fC*A (SEQ ID NO 12) (sense CCAACUCAUUCUCCAAGUC; antisense UACUUGGAGAAUGAGUUGGCA; 2'-F and phosphorothioate modifications; modified_base (1)..(2) (1,2)=2′-fluoro; modified_base (17)..(19) (17,18,19)=phosphorothioate (PS) backbone modification; modified_base (2)..(21) (2,3,19,20,21)=phosphorothioate (PS) backbone modification; modified_base (3)..(20) (3,4,5,12,16,17,20)=2′-fluoro)",Relative proliferation proportion of J82 cells,RAG1-40-31 0.1 nM + MMC 10000 nM,1.5%
same,Relative proliferation proportion of J82 cells,RAG1-40-31 0.1 nM + valrubicin 1 nM,71.0%
same,Relative proliferation proportion of J82 cells,RAG1-40-31 0.1 nM + valrubicin 10 nM,58.2%
same,Relative proliferation proportion of J82 cells,RAG1-40-31 0.1 nM + valrubicin 100 nM,73.2%
same,Relative proliferation proportion of J82 cells,RAG1-40-31 0.1 nM + valrubicin 1000 nM,26.9%
same,Relative proliferation proportion of J82 cells,RAG1-40-31 0.1 nM + valrubicin 10000 nM,9.9%
same,Relative proliferation proportion of J82 cells,"RAG1-40-31 0.1 nM, Control (no MMC)",97.9%
same,Relative proliferation proportion of J82 cells,"RAG1-40-31 0.1 nM, Control (no valrubicin)",85.1%
same,Relative proliferation proportion of J82 cells,RAG1-40-31 0.5 nM + MMC 1 nM,70.1%
same,Relative proliferation proportion of J82 cells,RAG1-40-31 0.5 nM + MMC 10 nM,69.3%
same,Relative proliferation proportion of J82 cells,RAG1-40-31 0.5 nM + MMC 100 nM,34.9%
same,Relative proliferation proportion of J82 cells,RAG1-40-31 0.5 nM + MMC 1000 nM,10.8%
same,Relative proliferation proportion of J82 cells,RAG1-40-31 0.5 nM + MMC 10000 nM,0.9%
same,Relative proliferation proportion of J82 cells,RAG1-40-31 0.5 nM + valrubicin 1 nM,62.4%
same,Relative proliferation proportion of J82 cells,RAG1-40-31 0.5 nM + valrubicin 10 nM,54.1%
same,Relative proliferation proportion of J82 cells,RAG1-40-31 0.5 nM + valrubicin 100 nM,72.8%
same,Relative proliferation proportion of J82 cells,RAG1-40-31 0.5 nM + valrubicin 1000 nM,24.4%
same,Relative proliferation proportion of J82 cells,RAG1-40-31 0.5 nM + valrubicin 10000 nM,7.7%
same,Relative proliferation proportion of J82 cells,"RAG1-40-31 0.5 nM, Control (no MMC)",89.9%
same,Relative proliferation proportion of J82 cells,"RAG1-40-31 0.5 nM, Control (no valrubicin)",77.8%
same,Relative proliferation proportion of J82 cells,RAG1-40-31 1 nM + MMC 1 nM,55.8%
same,Relative proliferation proportion of J82 cells,RAG1-40-31 1 nM + MMC 10 nM,57.2%
same,Relative proliferation proportion of J82 cells,RAG1-40-31 1 nM + MMC 100 nM,30.1%
same,Relative proliferation proportion of J82 cells,RAG1-40-31 1 nM + MMC 1000 nM,9.3%
same,Relative proliferation proportion of J82 cells,RAG1-40-31 1 nM + MMC 10000 nM,1.4%
same,Relative proliferation proportion of J82 cells,RAG1-40-31 1 nM + valrubicin 1 nM,59.8%
same,Relative proliferation proportion of J82 cells,RAG1-40-31 1 nM + valrubicin 10 nM,51.6%
same,Relative proliferation proportion of J82 cells,RAG1-40-31 1 nM + valrubicin 100 nM,54.4%
same,Relative proliferation proportion of J82 cells,RAG1-40-31 1 nM + valrubicin 1000 nM,22.7%
same,Relative proliferation proportion of J82 cells,RAG1-40-31 1 nM + valrubicin 10000 nM,7.5%
same,Relative proliferation proportion of J82 cells,"RAG1-40-31 1 nM, Control (no MMC)",79.8%
same,Relative proliferation proportion of J82 cells,"RAG1-40-31 1 nM, Control (no valrubicin)",73.9%
same,Relative proliferation proportion of J82 cells,RAG1-40-31 5 nM + MMC 1 nM,42.8%
same,Relative proliferation proportion of J82 cells,RAG1-40-31 5 nM + MMC 10 nM,40.8%
same,Relative proliferation proportion of J82 cells,RAG1-40-31 5 nM + MMC 100 nM,26.2%
same,Relative proliferation proportion of J82 cells,RAG1-40-31 5 nM + MMC 1000 nM,7.2%
same,Relative proliferation proportion of J82 cells,RAG1-40-31 5 nM + MMC 10000 nM,1.2%
same,Relative proliferation proportion of J82 cells,RAG1-40-31 5 nM + valrubicin 1 nM,37.9%
same,Relative proliferation proportion of J82 cells,RAG1-40-31 5 nM + valrubicin 10 nM,46.6%
same,Relative proliferation proportion of J82 cells,RAG1-40-31 5 nM + valrubicin 100 nM,50.9%
same,Relative proliferation proportion of J82 cells,RAG1-40-31 5 nM + valrubicin 1000 nM,22.6%
same,Relative proliferation proportion of J82 cells,RAG1-40-31 5 nM + valrubicin 10000 nM,5.5%
same,Relative proliferation proportion of J82 cells,"RAG1-40-31 5 nM, Control (no MMC)",59.3%
same,Relative proliferation proportion of J82 cells,"RAG1-40-31 5 nM, Control (no valrubicin)",58.4%
same,Relative proliferation proportion of J82 cells,RAG1-40-31 10 nM + MMC 1 nM,37.0%
same,Relative proliferation proportion of J82 cells,RAG1-40-31 10 nM + MMC 10 nM,37.7%
same,Relative proliferation proportion of J82 cells,RAG1-40-31 10 nM + MMC 100 nM,22.2%
same,Relative proliferation proportion of J82 cells,RAG1-40-31 10 nM + MMC 1000 nM,6.9%
same,Relative proliferation proportion of J82 cells,RAG1-40-31 10 nM + MMC 10000 nM,1.0%
same,Relative proliferation proportion of J82 cells,RAG1-40-31 10 nM + valrubicin 1 nM,33.1%
same,Relative proliferation proportion of J82 cells,RAG1-40-31 10 nM + valrubicin 10 nM,37.1%
same,Relative proliferation proportion of J82 cells,RAG1-40-31 10 nM + valrubicin 100 nM,40.4%
same,Relative proliferation proportion of J82 cells,RAG1-40-31 10 nM + valrubicin 1000 nM,20.3%
same,Relative proliferation proportion of J82 cells,RAG1-40-31 10 nM + valrubicin 10000 nM,4.3%
same,Relative proliferation proportion of J82 cells,"RAG1-40-31 10 nM, Control (no MMC)",48.9%
same,Relative proliferation proportion of J82 cells,"RAG1-40-31 10 nM, Control (no valrubicin)",50.6%
same,Relative proliferation proportion of J82 cells,RAG1-40-31 25 nM + MMC 1 nM,20.8%
same,Relative proliferation proportion of J82 cells,RAG1-40-31 25 nM + MMC 10 nM,25.7%
same,Relative proliferation proportion of J82 cells,RAG1-40-31 25 nM + MMC 100 nM,17.2%
same,Relative proliferation proportion of J82 cells,RAG1-40-31 25 nM + MMC 1000 nM,5.0%
same,Relative proliferation proportion of J82 cells,RAG1-40-31 25 nM + MMC 10000 nM,0.4%
same,Relative proliferation proportion of J82 cells,RAG1-40-31 25 nM + valrubicin 1 nM,26.1%
same,Relative proliferation proportion of J82 cells,RAG1-40-31 25 nM + valrubicin 10 nM,23.9%
same,Relative proliferation proportion of J82 cells,RAG1-40-31 25 nM + valrubicin 100 nM,26.3%
same,Relative proliferation proportion of J82 cells,RAG1-40-31 25 nM + valrubicin 1000 nM,13.3%
same,Relative proliferation proportion of J82 cells,RAG1-40-31 25 nM + valrubicin 10000 nM,2.7%
same,Relative proliferation proportion of J82 cells,"RAG1-40-31 25 nM, Control (no MMC)",38.4%
same,Relative proliferation proportion of J82 cells,"RAG1-40-31 25 nM, Control (no valrubicin)",45.6%
same,Relative proliferation proportion of J82 cells,RAG1-40-31 50 nM + MMC 1 nM,25.9%
same,Relative proliferation proportion of J82 cells,RAG1-40-31 50 nM + MMC 10 nM,25.8%
same,Relative proliferation proportion of J82 cells,RAG1-40-31 50 nM + MMC 100 nM,13.9%
same,Relative proliferation proportion of J82 cells,RAG1-40-31 50 nM + MMC 1000 nM,3.4%
same,Relative proliferation proportion of J82 cells,RAG1-40-31 50 nM + MMC 10000 nM,0.6%
same,Relative proliferation proportion of J82 cells,RAG1-40-31 50 nM + valrubicin 1 nM,19.7%
same,Relative proliferation proportion of J82 cells,RAG1-40-31 50 nM + valrubicin 10 nM,21.4%
same,Relative proliferation proportion of J82 cells,RAG1-40-31 50 nM + valrubicin 100 nM,23.9%
same,Relative proliferation proportion of J82 cells,RAG1-40-31 50 nM + valrubicin 1000 nM,14.8%
same,Relative proliferation proportion of J82 cells,RAG1-40-31 50 nM + valrubicin 10000 nM,3.2%
same,Relative proliferation proportion of J82 cells,"RAG1-40-31 50 nM, Control (no MMC)",34.8%
same,Relative proliferation proportion of J82 cells,"RAG1-40-31 50 nM, Control (no valrubicin)",33.5%
